Test results from PubChem BioAssay AID1963438 (Molecular Pharmacology Branch, DTP, NCI, 2024).
Where “and” joins values, the source holds several entries; their conditions need not be identical. Identical values can stand only once. Each block holds one compound with its values, some of them ahead of it.

Tested on: NCI-H510 multicellular tumor spheroid growth, % test/control
Assay: Anticancer human tumor NCI-H510 cell line growth inhibition [Asc];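 also: spheroids exposed to agents for 7 days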;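 as to viability, T/C: 100% = DMSO vehicle control wells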
Details: for viability, T/C: stronger effect = lower value
Summary of the method: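 Spheroid model: tumor line + HUVEC + hMSC. Single agents and combinations; top conc. at/near clinical Cmax (10 microM if undetermined), half-log dilutions. DMSO stocks at 800-fold test concentration.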

[1] = curve of first compound, second compound 0.01 µM
[2] = curve of first compound, second compound 0.0316 µM
[3] = curve of first compound, second compound 0.1 µM
[4] = curve of first compound, second compound 0.316 µM
[5] = curve of first compound, second compound 1 µM
[6] = second compound 0.01 µM, first compound 0.0316 µM
[7] = second compound 0.01 µM, first compound 0.1 µM
[8] = second compound 0.01 µM, first compound 0.316 µM
[9] = second compound 0.01 µM, first compound 1 µM
[10] = second compound 0.0316 µM, first compound 0.0316 µM
[11] = second compound 0.0316 µM, first compound 0.1 µM
[12] = second compound 0.0316 µM, first compound 0.316 µM
[13] = second compound 0.0316 µM, first compound 1 µM
[14] = second compound 0.1 µM, first compound 0.0316 µM
[15] = second compound 0.1 µM, first compound 0.1 µM
[16] = second compound 0.1 µM, first compound 0.316 µM
[17] = second compound 0.1 µM, first compound 1 µM
[18] = second compound 0.316 µM, first compound 0.0316 µM
[19] = second compound 0.316 µM, first compound 0.1 µM
[20] = second compound 0.316 µM, first compound 0.316 µM
[21] = second compound 0.316 µM, first compound 1 µM
[22] = second compound 1 µM, first compound 0.0316 µM
[23] = second compound 1 µM, first compound 0.1 µM
[24] = second compound 1 µM, first compound 0.316 µM
[25] = second compound 1 µM, first compound 1 µM

IC50 [1]: > 1000 nM
IC50 [2]: > 1000 nM
IC50 [3]: > 1000 nM
IC50 [4]: > 1000 nM
IC50 [5]: > 1000 nM
Compound: COc1c(OCCCN2CCOCC2)ccc2c3n(c(=NC(=O)c4cnc(N)nc4)nc12)CCN3 + CNC(C)C(=O)NC1CN(S(=O)(=O)c2cccc(S(=O)(=O)N3CCC4CCC(C(=O)NC(c5ccccc5)c5ccccc5)N4C(=O)C(NC(=O)C(C)NC)C3)c2)CCC2CCC(C(=O)NC(c3ccccc3)c3ccccc3)N2C1=O
viability, T/C (second compound 0.01 µM, first compound 0.00316 µM): 119%
viability, T/C (second compound 0.01 µM, first compound 0.01 µM): 104%
viability, T/C [6]: 118%
viability, T/C [7]: 130%
viability, T/C [8]: 127%
viability, T/C [9]: 128%
viability, T/C (second compound 0.0316 µM, first compound 0.00316 µM): 106%
viability, T/C (second compound 0.0316 µM, first compound 0.01 µM): 114%
viability, T/C [10]: 125%
viability, T/C [11]: 117%
viability, T/C [12]: 120%
viability, T/C [13]: 113%
viability, T/C (second compound 0.1 µM, first compound 0.00316 µM): 92.2%
viability, T/C (second compound 0.1 µM, first compound 0.01 µM): 109%
viability, T/C [14]: 106%
viability, T/C [15]: 128%
viability, T/C [16]: 112%
viability, T/C [17]: 125%
viability, T/C (second compound 0.316 µM, first compound 0.00316 µM): 115%
viability, T/C (second compound 0.316 µM, first compound 0.01 µM): 104%
viability, T/C [18]: 108%
viability, T/C [19]: 105%
viability, T/C [20]: 121%
viability, T/C [21]: 109%
viability, T/C (second compound 1 µM, first compound 0.00316 µM): 107%
viability, T/C (second compound 1 µM, first compound 0.01 µM): 113%
viability, T/C [22]: 112%
viability, T/C [23]: 139%
viability, T/C [24]: 116%
viability, T/C [25]: 110%

IC50 (curve of compound): > 1000 nM
Compound: O=C(c1ccc(F)c(F)c1Nc1ccc(I)cc1F)N1CC(O)([C@@H]2CCCCN2)C1
viability, T/C (compound 0.00316 µM): 80.5% and 85.3% and 98%
viability, T/C (compound 0.01 µM): 119% and 91% and 90.4%
viability, T/C (compound 0.0316 µM): 95.7% and 106% and 86.9%
viability, T/C (compound 0.1 µM): 97.4% and 102% and 86.8%
viability, T/C (compound 0.316 µM): 110% and 89% and 87.3%
viability, T/C (compound 1 µM): 72.5% and 86% and 83.7%

IC50 (curve of first compound, second compound 0.03 µM): > 1000 nM
IC50 (curve of first compound, second compound 0.0949 µM): > 1000 nM
IC50 (curve of first compound, second compound 0.3 µM): > 1000 nM
IC50 (curve of first compound, second compound 0.949 µM): > 1000 nM
IC50 (curve of first compound, second compound 3 µM): > 1000 nM
Compound: CNC(C)C(=O)NC1CN(S(=O)(=O)c2cccc(S(=O)(=O)N3CCC4CCC(C(=O)NC(c5ccccc5)c5ccccc5)N4C(=O)C(NC(=O)C(C)NC)C3)c2)CCC2CCC(C(=O)NC(c3ccccc3)c3ccccc3)N2C1=O (centres undefined) + CCN1C(C(=O)NC23CCC(C(=O)O)(CC2)CC3)C(c2cccc(Cl)c2F)C2(C(=O)Nc3cc(Cl)ccc32)C12CCCCC2
viability, T/C (second compound 0.03 µM, first compound 0.00316 µM): 96.8%
viability, T/C (second compound 0.03 µM, first compound 0.01 µM): 81.6%
viability, T/C (second compound 0.03 µM, first compound 0.0316 µM): 96.8%
viability, T/C (second compound 0.03 µM, first compound 0.1 µM): 101%
viability, T/C (second compound 0.03 µM, first compound 0.316 µM): 95.6%
viability, T/C (second compound 0.03 µM, first compound 1 µM): 97.8%
viability, T/C (second compound 0.0949 µM, first compound 0.00316 µM): 98.5%
viability, T/C (second compound 0.0949 µM, first compound 0.01 µM): 104%
viability, T/C (second compound 0.0949 µM, first compound 0.0316 µM): 87.8%
viability, T/C (second compound 0.0949 µM, first compound 0.1 µM): 77.2%
viability, T/C (second compound 0.0949 µM, first compound 0.316 µM): 105%
viability, T/C (second compound 0.0949 µM, first compound 1 µM): 83.5%
viability, T/C (second compound 0.3 µM, first compound 0.00316 µM): 81.6%
viability, T/C (second compound 0.3 µM, first compound 0.01 µM): 106%
viability, T/C (second compound 0.3 µM, first compound 0.0316 µM): 106%
viability, T/C (second compound 0.3 µM, first compound 0.1 µM): 93.4%
viability, T/C (second compound 0.3 µM, first compound 0.316 µM): 89.8%
viability, T/C (second compound 0.3 µM, first compound 1 µM): 83.7%
viability, T/C (second compound 0.949 µM, first compound 0.00316 µM): 110%
viability, T/C (second compound 0.949 µM, first compound 0.01 µM): 99.8%
viability, T/C (second compound 0.949 µM, first compound 0.0316 µM): 118%
viability, T/C (second compound 0.949 µM, first compound 0.1 µM): 96.6%
viability, T/C (second compound 0.949 µM, first compound 0.316 µM): 102%
viability, T/C (second compound 0.949 µM, first compound 1 µM): 81.7%
viability, T/C (second compound 3 µM, first compound 0.00316 µM): 86.5%
viability, T/C (second compound 3 µM, first compound 0.01 µM): 92%
viability, T/C (second compound 3 µM, first compound 0.0316 µM): 117%
viability, T/C (second compound 3 µM, first compound 0.1 µM): 84.1%
viability, T/C (second compound 3 µM, first compound 0.316 µM): 87.3%
viability, T/C (second compound 3 µM, first compound 1 µM): 110%

IC50 (curve of first compound, second compound 0.00316 µM): > 10000 nM
IC50 [1]: > 10000 nM
IC50 [2]: > 10000 nM
IC50 [3]: > 10000 nM
IC50 [4]: > 10000 nM
IC50 [5]: > 10000 nM
Compound: C#Cc1c(F)ccc2cc(O)cc(-c3ncc4c(N5CC6CCC(C5)N6)nc(OCC56CCCN5CC(F)C6)nc4c3F)c12 (centres undefined) + CNC(C)C(=O)NC1CN(S(=O)(=O)c2cccc(S(=O)(=O)N3CCC4CCC(C(=O)NC(c5ccccc5)c5ccccc5)N4C(=O)C(NC(=O)C(C)NC)C3)c2)CCC2CCC(C(=O)NC(c3ccccc3)c3ccccc3)N2C1=O
viability, T/C (second compound 0.00316 µM, first compound 0.0316 µM): 97.9%
viability, T/C (second compound 0.00316 µM, first compound 0.1 µM): 101%
viability, T/C (second compound 0.00316 µM, first compound 0.316 µM): 93.2%
viability, T/C (second compound 0.00316 µM, first compound 1 µM): 87.7%
viability, T/C (second compound 0.00316 µM, first compound 3.16 µM): 102%
viability, T/C (second compound 0.00316 µM, first compound 10 µM): 104%
viability, T/C [6]: 109%
viability, T/C [7]: 98.3%
viability, T/C [8]: 97.1%
viability, T/C [9]: 99.7%
viability, T/C (second compound 0.01 µM, first compound 3.16 µM): 107%
viability, T/C (second compound 0.01 µM, first compound 10 µM): 93.3%
viability, T/C [10]: 103%
viability, T/C [11]: 97.7%
viability, T/C [12]: 96.7%
viability, T/C [13]: 106%
viability, T/C (second compound 0.0316 µM, first compound 3.16 µM): 114%
viability, T/C (second compound 0.0316 µM, first compound 10 µM): 90.8%
viability, T/C [14]: 112%
viability, T/C [15]: 103%
viability, T/C [16]: 97.8%
viability, T/C [17]: 97.8%
viability, T/C (second compound 0.1 µM, first compound 3.16 µM): 112%
viability, T/C (second compound 0.1 µM, first compound 10 µM): 96.6%
viability, T/C [18]: 114%
viability, T/C [19]: 101%
viability, T/C [20]: 104%
viability, T/C [21]: 104%
viability, T/C (second compound 0.316 µM, first compound 3.16 µM): 97.7%
viability, T/C (second compound 0.316 µM, first compound 10 µM): 114%
viability, T/C [22]: 120%
viability, T/C [23]: 107%
viability, T/C [24]: 108%
viability, T/C [25]: 95.7%
viability, T/C (second compound 1 µM, first compound 3.16 µM): 104%
viability, T/C (second compound 1 µM, first compound 10 µM): 114%
